From BindingDB's records for PubMed 8022403 (National Institute of Diabetes, Digestive and Kidney …, 1994)

Tests used:
Adenosine receptor A2a = Adenosine receptor A2a (Rattus norvegicus, UniProt P30543)
Adenosine receptor A1 = molecular target: T1, Adenosine receptor A1 (Rattus norvegicus, UniProt P25099)
T1 sequence (P25099 whole entry): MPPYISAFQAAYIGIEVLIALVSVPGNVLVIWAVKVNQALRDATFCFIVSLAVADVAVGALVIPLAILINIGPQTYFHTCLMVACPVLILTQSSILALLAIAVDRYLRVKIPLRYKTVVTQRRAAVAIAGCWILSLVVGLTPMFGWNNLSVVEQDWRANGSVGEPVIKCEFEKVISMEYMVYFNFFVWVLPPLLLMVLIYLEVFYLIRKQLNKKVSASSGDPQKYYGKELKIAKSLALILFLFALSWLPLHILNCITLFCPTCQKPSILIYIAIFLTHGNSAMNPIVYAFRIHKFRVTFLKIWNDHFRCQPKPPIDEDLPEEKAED

Chain of Adenosine receptor A2a (P30543 whole entry): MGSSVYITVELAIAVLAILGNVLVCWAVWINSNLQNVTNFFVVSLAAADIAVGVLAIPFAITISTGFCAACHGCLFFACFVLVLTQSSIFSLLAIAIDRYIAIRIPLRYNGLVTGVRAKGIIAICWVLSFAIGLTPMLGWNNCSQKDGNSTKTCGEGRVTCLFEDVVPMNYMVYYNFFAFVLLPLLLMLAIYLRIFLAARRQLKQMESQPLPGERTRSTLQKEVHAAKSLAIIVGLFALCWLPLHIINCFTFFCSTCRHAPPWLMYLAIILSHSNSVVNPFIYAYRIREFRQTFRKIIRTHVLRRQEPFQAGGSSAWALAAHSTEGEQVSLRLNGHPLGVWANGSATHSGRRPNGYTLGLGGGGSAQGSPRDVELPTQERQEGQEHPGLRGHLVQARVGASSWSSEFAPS

Row | Ki (Adenosine receptor A2a) [µM] | Ki (Adenosine receptor A1) [µM] | Structure (SMILES)
1 | > 10 | > 10 | Cn1cnc2c(=O)[nH]c(=O)n(C)c21 [3,9-dimethyl-3,9-dihydro-1h-purine-2,6-dione]
2 | 85.1 | 27.8 | Nc1nc2c(ncn2[C@H]2O[C@@H](COP(=O)(O)O)[C@H](O)[C@@H]2O)c(=O)[nH]1 [NSC_6804]
3 | 22.7 | > 10 | Nc1ncnc2c1nc(Br)n2C1OC(CO)C(O)C1O (stereo not given) [8-Bromoadenosine]
4 | > 10 | > 10 | Nc1ncnc2c1ncn2[C@H]1C[C@H](O)[C@@H](CO)O1 [2'deoxyadenosine]
5 | > 10 | > 10 | O=c1[nH]c(=O)c2ncn(C3OC(COP(=O)(O)O)C(O)C3O)c2[nH]1 (stereo not given) [CAS_146-80-5]
6 | > 10 | > 10 | Nc1ncnc2c1ncn2[C@@]1(CO)O[C@H](CO)[C@@H](O)[C@H]1O [beta-D-Psicofuranosyladenine]
7 | 38.5 |  | NCC1OC(n2cnc3c(N)ncnc32)C(O)C1O (stereo not given) [2-Aminomethyl-5-(6-amino-purin-9-yl)-tetrahydro-furan-3,4-diol]
8 | > 10 | > 10 | Cn1c(=O)[nH]c2c(ncn2C)c1=O [1,9-Dimethylxanthine]
9 | > 10 | > 10 | Nc1ncnc2c1ncn2[C@@H]1O[C@H](CO)C[C@H]1O [3'-Deoxyadenosine (cordycepin)]
10 | > 10 | > 10 | CO[C@@H]1[C@H](O)[C@@H](CO)O[C@H]1n1cnc2c(N)ncnc21
11 | > 10 | > 10 | Nc1ccn([C@@H]2O[C@H](COP(=O)(O)OP(=O)(O)O)[C@@H](O)[C@H]2O)c(=O)n1 [5'-CDP]
12 | > 10 | > 10 | Cn1cnc2[nH]c(=O)[nH]c(=O)c21 [7-Methylxanthine]
13 |  | 27 | Nc1ncnc2c1N([C@H]1O[C@@H](CO)[C@H](O)[C@@H]1O)CN2 [T-7-Riboside]
14 | > 10 | 0.455 | CCCCCC[C@H]([C@H](C)O)n1cnc2c(N)ncnc21 (relative stereo) [3-(6-amino-9H-purin-9-yl)nonan-2-ol]
15 |  | > 10 | OCC1OC(n2cnc3c(S)ncnc32)C(O)C1O (stereo not given) [NSC_1867]
16 | > 10 | > 10 | O=c1[nH]c(=O)c2[nH]c(Cl)nc2[nH]1 [CAS_13548-68-0]
17 | > 10 |  | Nc1ncnc2c1ncn2[C@@H]1O[C@H](COP(=O)(O)O)[C@@H](O)[C@H]1O [adenosine 5 -monophosphate]

Row | Structure (SMILES) | Ki (Adenosine receptor A2a) [µM] | Ki (Adenosine receptor A1) [µM]
18 | CCNC(=O)[C@H]1O[C@@H](n2cnc3c(=O)[nH]cnc32)[C@H](O)[C@@H]1O [5'-N-ethylcarboxamidoinosine] | > 10 | > 10
19 | Cc1cn([C@H]2C[C@H](O)[C@@H](CO)O2)c(=O)[nH]c1=O [thymidine] | > 10 | > 10
20 | Nc1nc(S)c2ncn(C3OC(CO)C(O)C3O)c2n1 (stereo not given) [2-azanyl-9-[5-(hydroxymethyl)-3,4-bis(oxidanyl)oxolan-2-yl]-3H-purine-6-thione] | > 10 | > 10
21 | C[S+](CC[C@H](N)C(=O)[O-])C[C@H]1O[C@@H](n2cnc3c(N)ncnc32)[C@H](O)[C@@H]1O (stereo partly drawn) [(2S)-2-amino-4-({[(2S,3S,4R,5R)-5-(6-amino-9H-purin-9-yl)-3,4-dihydroxyoxolan-2-yl]methyl}(methyl)sulfanylium)butanoate] | 2.78 | 0.675
22 | O=c1ccn(C2OC(COP(=O)(O)OP(=O)(O)O)C(O)C2O)c(=O)[nH]1 (stereo not given) [hydrogen ({[5-(2,4-dioxo-1,2,3,4-tetrahydropyrimidin-1-yl)-3,4-dihydroxyoxolan-2-yl]methylphosphonato}oxy)phosphonate] | > 10 | > 10
